Data published in PMC10572522, “A Designed Analog of an Antimicrobial Peptide, Crabrolin, Exhibits Enhanced Anti-Proliferative and In Vivo Antimicrobial Activity” (International Journal of Molecular Sciences, 2023).
Residues, ends and D or L forms follow the SMILES beside them.

Key:
[1] = tested on: K. pneumoniae (ATCC 43816) biofilm; type: cell-based, Klebsiella pneumoniae; conditions: for MBIC: biofilm inhibitory rate more than 90%; for MBEC: eradication rate greater than 99.9%
Description: (§1) To measure the antibiofilm activity of crabrolin and its derivatives, four drug-resistant biofilm-forming strains, MRSA (NCTC 12493), K. pneumoniae (ATCC 43816), E. faecium (NTCC-12697), and P. aeruginosa (ATCC 9027), were used in this assay. Tryptic soy broth (TSB) (for the Gram-positive bacteria) and Luria–Bertani broth (LB) (for the Gram-negative bacteria) were used to culture the bacteria.
(§2) The mass of the biofilm in this assay was detected by the crystal violet staining method. First, 100 μL of 5 × 10^5 CFU/mL bacteria was incubated with 1 μL of different peptide solutions (ranging from 51200 μM to 100 μM) for 24 h at 37 °C with 200 rpm shaking. After the biofilm formation, 100 μL of PBS was used to rinse the biofilm twice. Next, 100 µL of methanol was added to fix the biofilm, and the biofilm was then dried. Thereafter, 100 μL of 0.1% crystal violet was added and left to stain for 15 min, and then the excess crystal violet was further rinsed by PBS. After the plate had air-dried, 30% glacial acetic acid was added to each well of the plate, and the plate was shaken for 15 min before the optical density (OD) value was measured at 595 nm using a Synergy HT plate reader. The MBIC value refers to the minimum concentration at which the biofilm inhibitory rate was more than 90%.
(§3) Different from measuring the MBIC value, to determine the MBEC value, 100 μL of the bacteria was first added to 96-well plates. After the biofilm was formed, the biofilm was rinsed with PBS twice to remove the planktonic cells, and then different concentrations of the drugs were added to the biofilm (the same as the MBIC assay). The mixture was incubated at 37 °C with shaking at 200 rpm. After 24 h of incubation, the mass of the biofilm was measured in the same way as the MBIC value, and the minimum concentration at which the eradication rate was greater than 99.9% was considered to be the MBEC value.

E. faecium (NTCC 12697) = experiment: Antimicrobial susceptibility assay (MIC/MBC); type: cell-based, Enterococcus faecium; conditions: for MIC: MHB, 37 °C, 20 h
Description: (§4) Six bacteria were tested in this experiment to detect the antimicrobial effects of crabrolin and its derivatives, including S. aureus (NCTC 10788), MRSA (NCTC 12493), E. coli (ATCC 8739), K. pneumoniae (ATCC 43816), E. faecium (NTCC-12697), and P. aeruginosa (ATCC 9027). The tested bacteria were cultured in Mueller Hinton broth medium (MHB) with norfloxacin (20 mg/L) as a positive control. All bacteria were incubated at 37 °C overnight and diluted to 5 × 10^5 CFU/mL before treating with the peptides. Stock solutions of 51,200 µM peptides were prepared in phosphate-buffered saline (PBS) and further diluted by a factor of two to 100 µM. Next, 1 µL of each peptide solution was mixed with 99 µL of bacterial subculture in a 96-well plate, and the plate was incubated at 37 °C for 20 h. After culturing, the absorbance of each well in the 96-well plate was analyzed at 550 nm using a Synergy HT plate reader (BioliseBioTek, Winooski, VT, USA). […] Starting with the MIC value, 10 µL of the solution from each well was dripped onto Mueller Hinton agar (MHA) plates. The plates were cultured at 37 °C for 20 h. After culturing, the lowest concentration with no colony growth was regarded as the MBC.

[2] = tested on: P. aeruginosa (ATCC 9027); experiment: Antimicrobial susceptibility assay (MIC/MBC); type: cell-based, Pseudomonas aeruginosa; conditions: for MIC: MHB, 37 °C, 20 h
Description: as §4

[3] = tested on: human glioblastoma astrocytoma U251MG; experiment: Anti-proliferative assay (MTT); type: cell-based; conditions: 24 h
Description: (§5) The human non-small-cell lung cancer line, H838, the human prostate carcinoma cell line, PC-3, the human glioblastoma astrocytoma, U251MG, the human breast cancer cell line, MCF-7, the human colorectal carcinoma cell line, HCT116, and the human keratinocyte cell line, HaCaT, were used to detect the anti-proliferative effects of the crabrolin and its derivatives in vitro. A total of 8000 cells were seeded in each well of a 96-well plate. After the cells had adhered to the wall, the cells were starved for 4 h. After the starvation, the cells were incubated with different concentrations of the drugs, ranging from 100 µM to 1 nM, for 24 h, with 0.1% Triton X-100 used as a positive control. Next, 10 µL of MTT (3-(4,5-dimethylthiazol-2-yl)-2,5-diphenyltetrazolium bromide) solution (5 mg/mL) was added to each well of the 96-well plate. After 2 h of incubation, 100 μL of DMSO-superseded medium was added to each well to dissolve the formazan crystals. Finally, the absorbance was detected using a Synergy HT plate reader at 570 nm.

[4] = tested on: human breast cancer cell line MCF-7; experiment: Anti-proliferative assay (MTT); type: cell-based; conditions: MCF-7, MTT, 24 h
Description: as §5

[5] = tested on: human colorectal carcinoma cell line HCT-116; experiment: Anti-proliferative assay (MTT); type: cell-based; conditions: HCT-116, MTT, 24 h
Description: as §5

[6] = tested on: human non-small-cell lung cancer line H838; experiment: Anti-proliferative assay (MTT); type: cell-based; conditions: 24 h
Description: as §5

[7] = tested on: human keratinocyte cell line HaCaT; experiment: Anti-proliferative assay (MTT); type: cell-based; conditions: HaCaT (normal keratinocytes), 24 h
Description: as §5

[8] = tested on: human prostate carcinoma cell line PC-3; experiment: Anti-proliferative assay (MTT); type: cell-based; conditions: PC3, MTT, 24 h
Description: as §5

[9] = tested on: MRSA (NCTC 12493) biofilm; type: cell-based, methicillin-resistant Staphylococcus aureus; conditions: for MBIC: biofilm inhibitory rate more than 90%; for MBEC: eradication rate greater than 99.9%
Description: as §1, §2, §3

MRSA (NCTC 12493) = experiment: Antimicrobial susceptibility assay (MIC/MBC); type: cell-based, methicillin-resistant Staphylococcus aureus; conditions: for MIC: MHB, 37 °C, 20 h
Description: as §4

E. coli (ATCC 8739) = experiment: Antimicrobial susceptibility assay (MIC/MBC); type: cell-based, Escherichia coli; conditions: for MIC: MHB, 37 °C, 20 h
Description: as §4

horse erythrocytes = experiment: Hemolysis assay; type: cell-based; conditions: for HC10 (10% hemolytic concentration) / HC50 (50% hemolytic concentration): erythrocytes, 37 °C, 2 h
Description: (§6) According to the procedures described in detail in a previous study, the debris and impurities of the erythrocytes were washed with PBS in advance to yield 2% of the erythrocyte suspension, and the drug concentration was diluted from 1024 µM to 2 µM with PBS [53]. The same amounts of the drug and the erythrocyte suspension were mixed and cultured at 37 °C for 2 h; 0.1% Triton X-100 (Sigma-Aldrich, St. Louis, MO, USA) was prepared as a positive control, and PBS was prepared as a negative control. After the incubation, the supernatant was transferred to a 96-well plate and then detected using a Synergy HT plate reader at 570 nm.

[10] = tested on: K. pneumoniae (ATCC 43816); experiment: Antimicrobial susceptibility assay (MIC/MBC); type: cell-based, Klebsiella pneumoniae; conditions: for MIC: MHB, 37 °C, 20 h
Description: as §4

[11] = tested on: P. aeruginosa (ATCC 9027) biofilm; type: cell-based, Pseudomonas aeruginosa; conditions: for MBIC: biofilm inhibitory rate more than 90%; for MBEC: eradication rate greater than 99.9%
Description: as §1, §2, §3

[12] = tested on: E. faecium (NTCC12697) biofilm; type: cell-based, Enterococcus faecium; conditions: for MBIC: biofilm inhibitory rate more than 90%; for MBEC: eradication rate greater than 99.9%
Description: as §1, §2, §3

S. aureus (NCTC 10788) = experiment: Antimicrobial susceptibility assay (MIC/MBC); type: cell-based, Staphylococcus aureus; conditions: for MIC: MHB, 37 °C, 20 h
Description: as §4

Hemolysis assay = type: cell-based, horse; conditions: horse, erythrocytes (2% suspension); at the peptide's maximum MIC; relative to Triton X-100; read-out: Hemolysis under the Maximum MIC
Description: as §6

| SMILES | MBIC [1] | MBEC [1] | MBC (E. faecium (NTCC 12697)) [µM] | MIC (E. faecium (NTCC 12697)) [µM] | MBC [2] [µM] | MIC [2] [µM] | IC50 [3] [µM] | IC50 [4] [µM] | IC50 [5] [µM] | IC50 [6] [µM] | IC50 [7] [µM] | IC50 [8] [µM] | MBIC [9] | MBEC [9] | MBC (MRSA (NCTC 12493)) [µM] | MIC (MRSA (NCTC 12493)) [µM] | MBC (E. coli (ATCC 8739)) [µM] | MIC (E. coli (ATCC 8739)) [µM] | MBC [10] [µM] | MIC [10] [µM] | also measured |
| --- | --- | --- | --- | --- | --- | --- | --- | --- | --- | --- | --- | --- | --- | --- | --- | --- | --- | --- | --- | --- | --- |
| CC[C@H](C)[C@H](NC(=O)[C@H](CC(C)C)NC(=O)[C@@H]1CCCN1C(=O)[C@H](CC(C)C)NC(=O)[C@@H](N)Cc1ccccc1)C(=O)N[C@@H](CC(C)C)C(=O)N[C@@H](CCCNC(=N)N)C(=O)N[C@@H](CCCCN)C(=O)N[C@@H](CCCNC(=N)N)C(=O)N[C@H](C(=O)N[C@H](C(=O)N[C@@H](C)C(=O)N[C@@H](CC(C)C)C(N)=O)[C@@H](C)O)C(C)C [Crabrolin-9R, FLPLILRKRVTAL-NH2] (H-FLPLILRKRVTAL-NH2) | >512/>512 µM | >512/>512 µM | > 512 | > 512 | > 512 | > 512 | 1140 | 6340 | 1880 | 2740 | 5850 | 354 | >512/>512 µM | >512/>512 µM | > 512 | > 512 | > 512 | 256 | > 512 | > 512 | Hemolytic activity (in words) (horse erythrocytes; 1 to 512 μM): lost its hemolytic activity; MBIC [11]: >512/>512 µM; MBEC [11]: >512/>512 µM; MBIC [12]: >512/>512 µM; MBEC [12]: >512/>512 µM; MBC (S. aureus (NCTC 10788)): > 512 µM; MIC (S. aureus (NCTC 10788)): 256 µM |
| CC[C@H](C)[C@H](NC(=O)[C@H](CCCNC(=N)N)NC(=O)[C@@H]1CCCN1C(=O)[C@H](CC(C)C)NC(=O)[C@@H](N)Cc1ccccc1)C(=O)N[C@@H](CC(C)C)C(=O)N[C@@H](CCCNC(=N)N)C(=O)N[C@@H](CCCCN)C(=O)N[C@H](C(=O)N[C@H](C(=O)N[C@H](C(=O)N[C@@H](C)C(=O)N[C@@H](CC(C)C)C(N)=O)[C@@H](C)O)C(C)C)[C@@H](C)CC [Crabrolin-4R, FLPRILRKIVTAL-NH2] (H-FLPRILRKIVTAL-NH2) | 16 µM | 128 µM | 32 | 16 | 16 | 16 | 25.1 | 20.3 | 47 | 11.4 | 35.8 | 18 | 8 µM | 64 µM | 8 | 4 | 4 | 4 | 8 | 8 | HC10 (10% hemolytic concentration) (horse erythrocytes): 62.117 µM; HC50 (50% hemolytic concentration) (horse erythrocytes): 216.266 µM; hemolysis at 2 h (Hemolysis assay): 6.18%; MBIC [11]: 128 µM; MBEC [11]: 256 µM; MBIC [12]: 16 µM; MBEC [12]: > 512 µM; MBC (S. aureus (NCTC 10788)): 4 µM; MIC (S. aureus (NCTC 10788)): 2 µM |
| CC[C@H](C)[C@H](NC(=O)[C@H](CCCCN)NC(=O)[C@@H]1CCCN1C(=O)[C@H](CC(C)C)NC(=O)[C@@H](N)Cc1ccccc1)C(=O)N[C@@H](CC(C)C)C(=O)N[C@@H](CCCNC(=N)N)C(=O)N[C@@H](CCCCN)C(=O)N[C@H](C(=O)N[C@H](C(=O)N[C@H](C(=O)N[C@@H](C)C(=O)N[C@@H](CC(C)C)C(N)=O)[C@@H](C)O)C(C)C)[C@@H](C)CC [Crabrolin-4K, FLPKILRKIVTAL-NH2] (H-FLPKILRKIVTAL-NH2) | 16 µM | 256 µM | 64 | 32 | 32 | 16 | 23.5 | 23.2 | 42.9 | 22.6 | 32.6 | 20.6 | 16 µM | 128 µM | 16 | 8 | 8 | 4 | 32 | 16 | HC10 (10% hemolytic concentration) (horse erythrocytes): 68.628 µM; HC50 (50% hemolytic concentration) (horse erythrocytes): 217.816 µM; hemolysis at 2 h (Hemolysis assay): 10.4%; MBIC [11]: 512/512 µM; MBEC [11]: 512/512 µM; MBIC [12]: 16 µM; MBEC [12]: > 512 µM; MBC (S. aureus (NCTC 10788)): 4 µM; MIC (S. aureus (NCTC 10788)): 2 µM |
| CC[C@H](C)[C@H](NC(=O)[C@H](CCCNC(=N)N)NC(=O)[C@H](CCCNC(=N)N)NC(=O)[C@H](CC(C)C)NC(=O)[C@@H](N)CCCNC(=N)N)C(=O)N[C@@H](CC(C)C)C(=O)N[C@@H](CCCNC(=N)N)C(=O)N[C@@H](CCCCN)C(=O)N[C@H](C(=O)N[C@H](C(=O)N[C@@H](CCCNC(=N)N)C(=O)N[C@@H](CCCNC(=N)N)C(=O)N[C@@H](CC(C)C)C(N)=O)C(C)C)[C@@H](C)CC [Crabrolin-PR, RLRRILRKIVRRL-NH2] (H-RLRRILRKIVRRL-NH2) | 8 µM | > 512 µM | 16 | 8 | 16 | 4 | 17.7 | 12.3 | 16.3 | 32.3 | 29.5 | 22.4 | 8 µM | 512 µM | 8 | 4 | 8 | 2 | 16 | 8 | HC10 (10% hemolytic concentration) (horse erythrocytes): 5019 µM; Hemolytic activity at the measured maximum concentration (horse erythrocytes; maximum concentration (range 1 to 512 μM)): less than 1%; hemolysis at 2 h (Hemolysis assay): 3.09%; MBIC [11]: 8 µM; MBEC [11]: > 512 µM; MBIC [12]: 32 µM; MBEC [12]: > 512 µM; MBC (S. aureus (NCTC 10788)): 4 µM; MIC (S. aureus (NCTC 10788)): 2 µM |
